Earlier results, collected in patent publication US20150017236A1, “PHARMACEUTICAL COMPOSITIONS OF THYROID HORMONE” (priority 2013, published 2015).

Settings: tablet formulation of levothyroxine sodium; storage

N[C@@H](Cc1cc(I)c(Oc2cc(I)c(O)c(I)c2)c(I)c1)C(=O)O [levothyroxine sodium, sodium (S)-2-amino-3-[4-(4-hydroxy-3,5-diiodphenoxy)-3,5-diiodophenyl]propionate]
decomposition of levothyroxine: approximately 1 percent per month
